pIC50: −log10 of the molar value.
Target: human recombinant KAT-II (Homo sapiens (Human), UniProt Q8N5Z0)
Experiment: KAT-II inhibitory test
Format: biochemical
Details: 3.0 μmol/L kynurenine, 37° C. for 1 hr, kynurenic acid by HPLC
Protocol: The compounds described in the above-mentioned Examples were used for the KAT-II inhibitory test.
Human recombinant KAT-II was prepared as follows.
His tag and maltose binding protein tag were added to the N-terminal of a gene encoding human KAT-II (Genbank accession number: AF481738.1), and the obtained gene was incorporated into pET32 (Merck Nihon Millipore), which is an Escherichia coli expression vector. Human recombinant KAT-II produced by BL21(DE3) Escherichia coli (Merck Nihon Millipore, 69450) transformed using the plasmid was purified using an amylose resin column (New England Biolabs, #800-21 L).
The inhibitory action of the test compound on human recombinant KAT-II was determined by the following method.
To a reaction mixture (45 μL) containing 3.0 μmol/L kynurenine, 10 μmol/L pyridoxal phosphate, 2.0 ng/μL human recombinant KAT-II, and 150 mmol/L tris(hydroxymethyl)aminomethane-acetate buffer (pH 8.0) was added a 10% dimethyl sulfoxide solution (5 μL) of each test compound prepared, and the mixture was reacted at 37° C. for 1 hr. After the reaction, 50% trichloroacetic acid (5 μL) was added to terminate the reaction.
The resultant kynurenic acid was quantified as follows by high performance liquid chromatography. An enzyme reaction mixture was separated by an octadecylsilane reversed-phase column (SC-50DS, Eicom Corporation; mobile phase: 250 mmol/L zinc acetate, 50 mmol/L sodium acetate, and 5.0% acetonitrile (pH 6.2)) incubated at 30° C., and kynurenic acid was quantified using a fluorescence detector (RF-20Axs, Shimadzu Corporation) at excitation wavelength 354 nm, detection wavelength 460 nm. The analytical curve was drawn every time by an external standard method. Each test compound was tested by dual measurement at each concentration. The kynurenic acid level in the presence of a test compound at each concentration was converted into % relative to kynurenic acid resulting from a reaction with an enzyme alone as 100%, and the obtained values were fitted to S-curve to determine IC50.

human recombinant KAT-II, sequence (Q8N5Z0 30-425): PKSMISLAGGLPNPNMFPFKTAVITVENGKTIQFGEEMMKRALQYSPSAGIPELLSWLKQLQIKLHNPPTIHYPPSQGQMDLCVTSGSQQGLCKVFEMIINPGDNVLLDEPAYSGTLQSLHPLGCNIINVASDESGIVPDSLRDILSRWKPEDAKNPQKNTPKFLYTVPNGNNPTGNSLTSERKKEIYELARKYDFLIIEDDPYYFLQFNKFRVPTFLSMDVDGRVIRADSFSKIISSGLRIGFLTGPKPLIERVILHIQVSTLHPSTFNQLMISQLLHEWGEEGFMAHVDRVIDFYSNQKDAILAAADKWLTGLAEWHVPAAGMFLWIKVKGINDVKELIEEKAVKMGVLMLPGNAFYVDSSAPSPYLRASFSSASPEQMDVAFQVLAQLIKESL

| pIC50 | Structure (SMILES) |
| --- | --- |
| 6.70 | CCc1nc(-n2nc(C)cc2C)nc2nc(N3CCC[C@@H]3C(=O)NCc3ccccc3)sc12 [Example 103, (R)—N-benzyl-1-[5-(3,5-dimethyl-1H-pyrazol-1-yl)-7-ethyl[1,3]thiazolo[4,5-d]pyrimidin-2-yl]pyrrolidine-2-carboxamide] |
| 6.04 | CN(C)c1nc(C2CC2)c2sc(N3CCC[C@@H]3C(=O)NCc3ccccc3)nc2n1 [Example 106, (R)—N-benzyl-1-[7-cyclopropyl-5-(N,N-dimethylamino)[1,3]thiazolo[4,5-d]pyrimidin-2-yl]pyrrolidine-2-carboxamide] |
| 6.08 | Cc1nc2nc(N3CCC[C@@H]3C(=O)NCc3ccccc3)sc2c(=O)n1C [Example 109, (R)—N-benzyl-1-(5,6-dimethyl-7-oxo-6,7-dihydro[1,3]thiazolo[4,5-d]pyrimidin-2-yl)pyrrolidine-2-carboxamide] |
| 6.68 | CC(C)c1cnc2nc(N3CCC[C@@H]3C(=O)NCc3ccccc3)sc2c1 [Example 111] |
| 7.07 | CC(C)(C#N)c1cnc2nc(N3CCC[C@@H]3C(=O)NCc3ccccc3)sc2c1 [Example 113, (R)—N-benzyl-1-[6-(2-cyanopropan-2-yl)[1,3]thiazolo[4,5-b]pyridin-2-yl]pyrrolidine-2-carboxamide] |
| 7.15 | N#CC1(c2cnc3nc(N4CCC[C@@H]4C(=O)NCc4ccccc4)sc3c2)CCC1 [Example 115] |
| 7.05 | N#CC1(c2cnc3nc(N4CCC[C@@H]4C(=O)NCc4ccccc4)sc3c2)CCOCC1 [Example 116] |
| 6.77 | COCC1(c2cnc3nc(N4CCC[C@@H]4C(=O)NCc4ccccc4)sc3c2)CC1 [Example 117] |
| 6.28 | Cc1cc2sc(N3CCC[C@@H]3C(=O)NC3(c4ccccc4)CC3)nc2nc1C [Example 120] |
| 6.15 | O=C(NCc1ccccc1)[C@H]1CCCN1c1nc2ncc(C(F)(F)F)cc2s1 [Example 124] |
| 6.72 | O=C(NCc1ccccc1)[C@H]1CCCN1c1nc2ncc(C3(O)CCC3)cc2s1 [Example 126] |
| 6.55 | COC1(c2cnc3nc(N4CCC[C@@H]4C(=O)NCc4ccccc4)sc3c2)CCC1 [Example 127] |
| 7.14 | O=C(NCc1ccccc1)[C@H]1CCCN1c1nc2ncc(C3CCOCC3)cc2s1 [Example 129] |
| 6.70 | Cc1cnc2nc(N3CCC[C@@H]3C(=O)NCc3ccccc3)sc2c1 [Example 134] |
| 6.31 | Cc1cnc2nc(N3CCC[C@@H]3C(=O)NCc3ccccc3)sc2c1C#N [Example 136, (R)—N-benzyl-1-(7-cyano-6-methyl[1,3]thiazolo[4,5-b]pyridin-2-yl)pyrrolidine-2-carboxamide] |
| 6.49 | COCc1ccnc2nc(N3CCC[C@@H]3C(=O)NCc3ccccc3)sc12 [Example 141] |
| 7.03 | Cc1nc(-c2cnc3nc(N4CCC[C@@H]4C(=O)N[C@H](C)c4ccccc4)sc3c2)no1 [Example 148, (R)-1-[6-(5-methyl-1,2,4-oxadiazol-3-yl)[1,3]thiazolo[4,5-b]pyridin-2-yl]-N-[(1R)-1-phenylethyl]pyrrolidine-2-carboxamide] |
| 6.96 | Cc1nc(-c2c(C)cnc3nc(N4CCC[C@@H]4C(=O)NCc4ccccc4)sc23)no1 [Example 149] |
| 6.57 | O=C(NCc1ccccc1)[C@H]1CCCN1c1nc2ncc(OC3COC3)cc2s1 [Example 151] |
| 6.19 | COCc1cnc2nc(N3CCC[C@@H]3C(=O)NCc3ccccc3)sc2c1 [Example 159] |

Further lines, the molecule ahead of its results:

| Structure (SMILES) | pIC50 |
| --- | --- |
| CCOc1ncnc2nc(N3CCC[C@@H]3C(=O)NCc3ccccc3)sc12 [Example 19, (R)—N-benzyl-1-(7-ethoxy[1,3]thiazolo[4,5-d]pyrimidin-2-yl)pyrrolidine-2-carboxamide] | 7.43 |
| O=C(NCc1ccccc1)[C@H]1CCCN1c1nc2ncnc(C3CC3)c2s1 [Example 23, (R)—N-benzyl-1-(7-cyclopropyl[1,3]thiazolo[4,5-d]pyrimidin-2-yl)pyrrolidine-2-carboxamide] | 7.59 |
| CCc1ncnc2nc(N3CCC[C@@H]3C(=O)NCc3ccccc3)sc12 [Example 24] | 6.70 |
| CCCc1ncnc2nc(N3CCC[C@@H]3C(=O)NCc3ccccc3)sc12 [Example 26] | 6.92 |
| CC(C)c1ncnc2nc(N3CCC[C@@H]3C(=O)NCc3ccccc3)sc12 [Example 28] | 6.72 |
| CC(C)(C)c1ncnc2nc(N3CCC[C@@H]3C(=O)NCc3ccccc3)sc12 [Example 30] | 6.57 |
| CC1(c2ncnc3nc(N4CCC[C@@H]4C(=O)NCc4ccccc4)sc23)CC1 [Example 31, (R)—N-benzyl-1-[7-(1-methylcyclopropyl)[1,3]thiazolo[4,5-d]pyrimidin-2-yl]pyrrolidine-2-carboxamide] | 7.19 |
| COCCc1ncnc2nc(N3CCC[C@@H]3C(=O)NCc3ccccc3)sc12 [Example 32] | 6.41 |
| COCc1ncnc2nc(N3CCC[C@@H]3C(=O)NCc3ccccc3)sc12 [Example 33] | 6.22 |
| COCc1ncnc2nc(N3CCC[C@@H]3C(=O)N[C@H](C)c3ccccc3)sc12 [Example 34] | 6.19 |
| O=C(NCc1ccccc1)[C@H]1CCCN1c1nc2ncnc(-c3ccccn3)c2s1 [Example 35] | 6.54 |
| C[C@H](C(=O)NCc1ccccc1)N(C)c1nc2ncnc(C3CC3)c2s1 [Example 36, (R)—N-benzyl-2-[N′-(7-cyclopropyl[1,3]thiazolo[4,5-d]pyrimidin-2-yl)-N′-methylamino]propionamide] | 7.19 |
| COCCN(c1nc2ncnc(C3CC3)c2s1)[C@H](C)C(=O)NCc1ccccc1 [Example 38] | 6.39 |
| C[C@H](C(=O)NCc1ccccc1)N(Cc1ccccn1)c1nc2ncnc(C3CC3)c2s1 [Example 39] | 6.46 |
| CCc1nc(C2CC2)nc2nc(N3CCC[C@@H]3C(=O)NCc3ccccc3)sc12 [Example 41] | 6.77 |
| O=C(NCc1ccccc1)[C@H]1CCCN1c1nc2nc(CC3CCOCC3)nc(C3CC3)c2s1 [Example 46] | 7.46 |
| O=C(NCc1ccccc1)[C@H]1CCCN1c1nc2nc(-c3ccncc3)nc(C3CC3)c2s1 [Example 49] | 7.12 |
| O=C(NCc1ccccc1)[C@H]1CCCN1c1nc2nc(C(F)F)nc(C3CCOCC3)c2s1 [Example 55] | 6.39 |

| Structure (SMILES) | pIC50 |
| --- | --- |
| COCc1nc(C(F)(F)F)c2sc(N3CCC[C@@H]3C(=O)NCc3ccccc3)nc2n1 [Example 56] | 6.64 |
| CN(C)Cc1nc(C2CC2)c2sc(N3CCC[C@@H]3C(=O)NCc3ccccc3)nc2n1 [Example 58] | 6.19 |
| O=C(NCc1ccccc1)[C@H]1CCCN1c1nc2ncnc(Oc3ccccc3)c2s1 [Example 66] | 7.92 |
| CCNc1nc(C(F)(F)F)nc2nc(N3CCC[C@@H]3C(=O)NCc3ccccc3)sc12 [Example 67] | 7.92 |
| O=C(NCc1ccccc1)[C@H]1CCCN1c1nc2ncnc(OCC(F)(F)F)c2s1 [Example 70] | 6.80 |
| CCOc1nc(C2CCOCC2)nc2nc(N3CCC[C@@H]3C(=O)NCc3ccccc3)sc12 [Example 75] | 7.02 |
| CC(C)(C#N)c1ncnc2nc(N3CCC[C@@H]3C(=O)NCc3ccccc3)sc12 [Example 76, (R)—N-benzyl-1-[7-(2-cyanopropan-2-yl)[1,3]thiazolo[4,5-d]pyrimidin-2-yl]pyrrolidine-2-carboxamide] | 5.82 |
| Cc1nc(-c2ccc(F)cc2)nc2nc(N3CCC[C@@H]3C(=O)NCc3ccccc3)sc12 [Example 78] | 6.26 |
| O=C(NCc1ccccc1)[C@H]1CCCN1c1nc2nc(COC3CCOCC3)nc(C3CC3)c2s1 [Example 83] | 7.89 |
| Cc1nc(OC2CCOCC2)nc2nc(N3CCC[C@@H]3C(=O)NCc3ccccc3)sc12 [Example 84] | 6.41 |
| CCOc1nc(C)c2sc(N3CCC[C@@H]3C(=O)NCc3ccccc3)nc2n1 [Example 88] | 6.38 |
| O=C(NCc1ccccc1)[C@H]1CCCN1c1nc2ncnc(OC3CCC3)c2s1 [Example 89, (R)—N-benzyl-1-[7-(cyclobutyloxy)[1,3]thiazolo[4,5-d]pyrimidin-2-yl]pyrrolidine-2-carboxamide] | 7.34 |
| O=C(NCc1ccccc1)[C@H]1CCCN1c1nc2ncnc(OC3CCOCC3)c2s1 [Example 90] | 6.89 |
| CN(c1nc2ncnc(C3CC3)c2s1)C(C)(C)C(=O)NCc1ccccc1 [Example 92] | 5.68 |
| CN(c1nc2ncnc(C3CC3)c2s1)[C@@H](C(=O)NCc1ccccc1)C1CC1 [Example 93] | 6.85 |
| O=C(NCc1ccccc1)[C@H]1CCCN1c1nc2nc(CN3CCOCC3)nc(C3CC3)c2s1 [Example 98] | 7.12 |
| O=C(NCc1ccccc1)[C@H]1CSCN1c1nc2ncnc(C3CC3)c2s1 [Example 100, (S)—N-benzyl-3-(7-cyclopropyl[1,3]thiazolo[4,5-d]pyrimidin-2-yl)-1,3-thiazolidine-4-carboxamide] | 6.62 |
| CCc1nc(-n2nccn2)nc2nc(N3CCC[C@@H]3C(=O)NCc3ccccc3)sc12 [Example 101, (R)—N-benzyl-1-[7-ethyl-5-(2H-1,2,3-triazol-2-yl)[1,3]thiazolo[4,5-d]pyrimidin-2-yl]pyrrolidine-2-carboxamide] | 6.82 |

Source: patent US10793582B2, “Bicyclic heterocyclic compound” (MITSUBISHI TANABE PHARMA CORPORATION, priority 2015, dated 2020)
